This note sets out measurements from US20250223307A1, “MDM2/MDMX DOUBLE-TARGET INHIBITOR COMPOUND, PRODRUG, PHARMACEUTICAL COMPOSITION, AND PREPARATION METHOD THEREFOR AND USE THEREOF” (GLOBAL HEALTH DRUG DISCOVERY INSTITUTE, priority 2022, published 2025).

Experiment [1] has as its system Blood cancer cells RS4; 11. In words: CellTiter Glo test: growth inhibition of cells. It is filed as cell-based. The following applies: Homo sapiens, 11 cells, 72 h, cell viability. For orientation: In ATP-based viability assays light output follows the ATP content of the culture.
The target of a further experiment is MDM2 (Homo sapiens, UniProt Q00987). Description: HTRF test: inhibition of MDM2-p53 protein binding.
Chain of MDM2 (Q00987 2-138): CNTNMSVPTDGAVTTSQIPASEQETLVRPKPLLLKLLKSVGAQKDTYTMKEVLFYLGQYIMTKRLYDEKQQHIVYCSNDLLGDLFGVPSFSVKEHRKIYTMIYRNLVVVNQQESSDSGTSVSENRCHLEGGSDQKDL
A further experiment has as its target T1, MDMX (Homo sapiens, UniProt O15151).
T1 sequence (O15151 2-134): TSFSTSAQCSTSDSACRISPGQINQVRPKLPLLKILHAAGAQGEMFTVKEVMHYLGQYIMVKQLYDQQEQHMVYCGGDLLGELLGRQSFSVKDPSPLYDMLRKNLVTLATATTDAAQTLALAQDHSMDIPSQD
In words: HTRF test: inhibition of MDMX-p53 protein binding. For orientation: TR-FRET usually uses a lanthanide donor and a delayed reading to cut background.

Bounds are passed on as bounds.

What is called IC50 is the concentration needed to halve the response being measured. Read a low IC50 as greater potency in that assay. For `O=C1N/C(=C\c2c[nH]c3cc(Cl)ccc23)C(=O)N1[C@H](CO)c1ccc(F)c(F)c1` [Compound 53, (S,Z)-5-((6-chloro-1H-indol-3-yl)methylene)-3-(1-(3,4-difluorophenyl)-2-hydroxyethyl)imidazolidine-2,4-dione], the results for the IC50 (in experiment [1]; at MDM2; at MDMX) were 1 to 10 µM, less than 0.01 µM and less than 0.01 µM, respectively.
For the compound `O=C1N/C(=C\c2c[nH]c3cc(Cl)ccc23)C(=O)N1C(CO)c1ccc(F)c(F)c1` (stereo not drawn) [Compound 26], the IC50 was not above 1 µM in experiment [1], less than 0.01 µM at MDM2 and less than 0.01 µM at MDMX.
In the case of `Cc1c(Cl)ccc2c(/C=C3\NC(=O)N(C(C(=O)NCCO)c4ccc(C#N)c(F)c4)C3=O)c[nH]c12` (stereo not drawn) [Compound 67, (Z)-2-(4-((6-chloro-7-methyl-1H-indol-3-yl)methylene)-2,5-dioxoimidazolidin-1-yl)-2-(4-cyano-3-fluorophenyl)-N-(2-hydroxyethyl)acetamide], the half-maximal inhibitory concentration (IC50) in experiment [1] is not above 1 µM; at MDM2, less than 0.01 µM; on MDMX, less than 0.01 µM.
Regarding `O=C1N/C(=C\c2c[nH]c3c(F)c(Cl)ccc23)C(=O)N1Cc1cc(F)c(Cl)c(F)c1` [Compound 106, (Z)-3-(4-chloro-3,5-difluorobenzyl)-5-((6-chloro-7-fluoro-1H-indol-3-yl)methylene)imidazolidine-2,4-dione], the 50% inhibitory concentration (IC50) in experiment [1] was not above 1 µM; on MDM2, 0.01 to 0.1 µM; at MDMX, 0.01 to 0.1 µM.
`N#Cc1ccc([C@@H](CO)N2C(=O)N/C(=C\c3c[nH]c4cc(Cl)ccc34)C2=O)cc1` [Compound 50, (S,Z)-4-(1-(4-((6-chloro-1H-indol-3-yl)methylene)-2,5-dioxoimidazolidin-1-yl)-2-hydroxyethyl)benzonitrile]: the half-maximal inhibitory concentration (IC50) in experiment [1] is not above 1 µM; at MDM2 it was 0.01 to 0.1 µM; at MDMX, more than 0.1 µM.
The corresponding values for `Cc1c(Cl)ccc2c(/C=C3\NC(=O)N(Cc4ccc(C#N)c(F)c4)C3=O)c[nH]c12` [Compound 21, (Z)-4-((4-((6-chloro-7-methyl-1H-indol-3-yl)methylene)-2,5-dioxoimidazolidin-1-yl)methyl)-2-fluorobenzonitrile] are not above 1 µM, 0.01 to 0.1 µM and less than 0.01 µM.
The like results for `O=C1N/C(=C\c2c[nH]c3cc(Br)ccc23)C(=O)N1Cc1ccc(Cl)cc1` [Compound 5, (Z)-5-((6-bromo-1H-indol-3-yl)methylene)-3-(4-chlorobenzyl)imidazolidine-2,4-dione] were, in that order, 1 to 10 µM, 0.01 to 0.1 µM and 0.01 to 0.1 µM.
On to `O=C1N/C(=C\c2c[nH]c3c(F)c(Cl)ccc23)C(=O)N1C(CO)c1ccc(Cl)c(F)c1` (stereo not drawn) [Compound 77, (Z)-3-(1-(4-chloro-3-fluorophenyl)-2-hydroxyethyl)-5-((6-chloro-7-fluoro-1H-indol-3-yl)methylene)imidazolidine-2,4-dione], for which the 50% inhibitory concentration (IC50) in experiment [1] is not above 1 µM; at MDM2, 0.01 to 0.1 µM; at MDMX it was 0.01 to 0.1 µM.
With `N#Cc1ccc(CN2C(=O)N/C(=C\c3c[nH]c4c(F)c(Cl)ccc34)C2=O)cc1` [Compound 16, (Z)-4-((4-((6-chloro-7-fluoro-1H-indol-3-yl)methylene)-2,5-dioxoimidazolidin-1-yl)methyl)benzonitrile], the figures for the IC50 (in experiment [1]; at MDM2; at MDMX) were not above 1 µM, less than 0.01 µM and less than 0.01 µM, respectively.
As for `Cc1c(Cl)ccc2c(/C=C3\NC(=O)N(C(CO)c4ccc(Cl)c(F)c4)C3=O)c[nH]c12` (stereo not drawn) [Compound 78, (Z)-3-(1-(4-chloro-3-fluorophenyl)-2-hydroxyethyl)-5-((6-chloro-7-methyl-1H-indol-3-yl)methylene)imidazolidine-2,4-dione], the IC50 in experiment [1] is not above 1 µM; on MDM2, 0.01 to 0.1 µM; on MDMX, 0.01 to 0.1 µM.
For the compound `O=C(NC(CO)CO)C(c1ccc(Cl)cc1)N1C(=O)N/C(=C\c2c[nH]c3c(F)c(Cl)ccc23)C1=O` (stereo not drawn) [Compound 28, (Z)-2-(4-((6-chloro-7-fluoro-1H-indol-3-yl)methylene)-2,5-dioxoimidazolidin-1-yl)-2-(4-chlorophenyl)-N-(1,3-dihydroxypropan-2-yl)acetamide], the 50% inhibitory concentration (IC50) in experiment [1] is not above 1 µM; at MDM2, less than 0.01 µM; at MDMX, less than 0.01 µM.
For `N#Cc1ccc(C(C(=O)NC(CO)CO)N2C(=O)N/C(=C\c3c[nH]c4cc(Cl)ccc34)C2=O)cc1` (stereo not drawn) [Compound 31, (Z)-2-(4-((6-chloro-1H-indol-3-yl)methylene)-2,5-dioxoimidazolidin-1-yl)-2-(4-cyanophenyl)-N-(1,3-dihydroxypropan-2-yl)acetamide], the values for the IC50 (in experiment [1]; at MDM2; on MDMX) were 1 to 10 µM, 0.01 to 0.1 µM and 0.01 to 0.1 µM, respectively.
As to `N#Cc1ccc(C(C(=O)NCCO)N2C(=O)N/C(=C\c3c[nH]c4c(F)c(Cl)ccc34)C2=O)cc1` (stereo not drawn) [Compound 58, (Z)-2-(4-((6-chloro-7-fluoro-1H-indol-3-yl)methylene)-2,5-dioxoimidazolidin-1-yl)-2-(4-cyanophenyl)-N-(2-hydroxyethyl)acetamide], the IC50 in experiment [1] is not above 1 µM; on MDM2, less than 0.01 µM; on MDMX, less than 0.01 µM.
As to `O=C1N/C(=C\c2c[nH]c3cc(Cl)ccc23)C(=O)N1Cc1ccc(Cl)cc1` [Compound 2, (Z)-5-((6-chloro-1H-indol-3-yl)methylene)-3-(4-chlorobenzyl)imidazolidine-2,4-dione], the IC50 in experiment [1] was not above 1 µM; on MDM2 it was 0.01 to 0.1 µM; on MDMX, 0.01 to 0.1 µM.
For `N#Cc1ccc(C(CO)N2C(=O)N/C(=C\c3c[nH]c4c(F)c(Cl)ccc34)C2=O)cc1F` (stereo not drawn) [Compound 37, (Z)-4-(1-(4-((6-chloro-7-fluoro-1H-indol-3-yl)methylene)-2,5-dioxoimidazolidin-1-yl)-2-hydroxyethyl)-2-fluorobenzonitrile], the half-inhibitory concentration (IC50) is not above 1 µM in experiment [1], 0.01 to 0.1 µM at MDM2 and 0.01 to 0.1 µM at MDMX.
For the compound `O=C1N/C(=C\c2c[nH]c3cc(Cl)ccc23)C(=O)N1Cc1ccc(F)cc1` [Compound 3, (Z)-5-((6-chloro-1H-indol-3-yl)methylene)-3-(4-fluorobenzyl)imidazolidine-2,4-dione], the IC50 is not above 1 µM in experiment [1], 0.01 to 0.1 µM at MDM2 and 0.01 to 0.1 µM on MDMX.
As to `Cc1c(Cl)ccc2c(/C=C3\NC(=O)N(C(C(=O)NCC45CCC(O)(CC4)CC5)c4ccc(F)c(F)c4)C3=O)c[nH]c12` (stereo not drawn) [Compound 64, (Z)-2-(4-((6-chloro-7-methyl-1H-indol-3-yl)methylene)-2,5-dioxoimidazolidin-1-yl)-2-(3,4-difluorophenyl)-N-((4-hydroxylbicyclo[2.2.2]octan-1-yl)methyl)acetamide], the half-maximal inhibitory concentration (IC50) in experiment [1] is not above 1 µM; on MDM2, less than 0.01 µM; on MDMX, less than 0.01 µM.
In the case of `O=C1N/C(=C\c2c[nH]c3cc(Cl)ccc23)C(=O)N1C(CO)c1ccc(Cl)cc1` (stereo not drawn) [Compound 45, (Z)-5-((6-chloro-1H-indol-3-yl)methylene)-3-(1-(4-chlorophenyl)-2-hydroxyethyl)imidazolidine-2,4-dione], the 50% inhibitory concentration (IC50) in experiment [1] was not above 1 µM; on MDM2 it was 0.01 to 0.1 µM; at MDMX, 0.01 to 0.1 µM.
Turning to `Cc1c(Cl)ccc2c(/C=C3\NC(=O)N(C(C(=O)NC45CCC(O)(CC4)CC5)c4ccc(F)c(F)c4)C3=O)c[nH]c12` (stereo not drawn) [Compound 66, (Z)-2-(4-((6-chloro-7-methyl-1H-indol-3-yl)methylene)-2,5-dioxoimidazolidin-1-yl)-2-(3,4-difluorophenyl)-N-(4-hydroxylbicyclo[2.2.2]octan-1-yl)acetamide], the IC50 in experiment [1] was not above 1 µM; on MDM2, less than 0.01 µM; at MDMX it was less than 0.01 µM.
For `O=C(NCCO)C(c1ccc(Cl)cc1)N1C(=O)N/C(=C\c2c[nH]c3c(F)c(Cl)ccc23)C1=O` (stereo not drawn) [Compound 59, (Z)-2-(4-((6-chloro-7-fluoro-1H-indol-3-yl)methylene)-2,5-dioxoimidazolidin-1-yl)-2-(4-chlorophenyl)-N-(2-hydroxyethyl)acetamide], the figures for the IC50 (in experiment [1]; on MDM2; at MDMX) were not above 1 µM, less than 0.01 µM and 0.01 to 0.1 µM, respectively.
With `O=C1N/C(=C\c2c[nH]c3c(F)c(Cl)ccc23)C(=O)N1C(CO)c1ccc(F)cc1` (stereo not drawn) [Compound 84, (Z)-5-((6-chloro-7-fluoro-1H-indol-3-yl)methylene)-3-(1-(4-fluorophenyl)-2-hydroxyethyl)imidazolidine-2,4-dione], the IC50 in experiment [1] is not above 1 µM; on MDM2 it was less than 0.01 µM; at MDMX it was less than 0.01 µM.
